Results taken from publication PMC10447463, “Data-mining unveils structure–property–activity correlation of viral infectivity enhancing self-assembling peptides” (Nature Communications, 2023).
Read-outs that look alike come from different tables or passages of the source.

Assays:
[1] = Turbidity, derived count rate of scattered light; assay type: physicochemical; settings: for Log Count Rate: log of derived count rate; for Count Rate / Zeta Count Rate / kcps: derived count rate of scattered light
Summary of the method: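 Samples: 1 mg/mL in PBS pH 7.4 (from DMSO), 1 d at RT, then diluted in 1 mM KCl immediately before measurement. Triplicates, two independent runs averaged.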

[2] = assay type: physicochemical
Summary of the method: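 Preformed peptide fibrils (1 mg/mL) mixed with 50 µM ThT in PBS, 15 min at RT, fluorescence ex 440/em 488 nm versus PBS blank, triplicates. Zeta potential: peptides at 1 mg/mL in PBS pH 7.4, aged 1 d at RT, diluted in 1 mM KCl, Smoluchowski from electrophoretic mobility.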

[3] = category 1 or 0 from count rate, key not given
[4] = mean, std deviation in next column
[5] = mean, std deviation in separate column
[6] = ThT fluorescence relative to blank (42.1851851851852 a.u.)
[7] = ThT fluorescence relative to blank, blank = 42.1851851851852
[8] = relative to blank 42.1851851851852 a.u.

QCKFKQFFNMWQ [CK10]
Log Count Rate ([1]; Fig S8 panels B, D): 4.277 | Count Rate ([1]; Fig S8 panels B, D, turbidity): 18911.4 | Zeta Count Rate Category ([1]; category 1 / 0, no key given): 1 | Zeta Count Rate Category [1, 3]: 1 | Zeta Count Rate / kcps [1]: 18911.36667 kcps | Zeta Count Rate / kcps [1, 4]: 18911.36667 kcps | Zeta Count Rate / kcps [1, 5]: 18911.36667 kcps | Tht rel to blank (42.1851851851852) [2, 6]: 25.38 | Tht rel to blank (42.1851851851852) [2, 7]: 25.38 | Tht category (> 1.5 to blank = +) ([2]; category 1/0): 1 (ThT. Cat is 1, if Rel. ThT >2) | Tht rel to blank (42.1851851851852) [2, 8]: 25.38

QCKIKIQI [CK3]
Zeta Count Rate Category ([1]; category 1/0, no key printed): 1 | Zeta Count Rate Category [1, 3]: 1 | Zeta Count Rate / kcps [1, 4]: 12426.83333 kcps | Zeta Count Rate / kcps [1, 5]: 12426.83333 kcps | Tht rel to blank (42.1851851851852) [2, 6]: 2.039 | Tht category (> 1.5 to blank = +) ([2]; category 1/0): 1 (ThT. Cat is 1, if Rel. ThT >2) | Tht rel to blank (42.1851851851852) [2, 8]: 2.039

QCKIKIQINM [CK2]
Zeta Count Rate Category ([1]; category 1/0, no key printed): 1 | Zeta Count Rate Category [1, 3]: 1 | Zeta Count Rate / kcps [1, 4]: 9524 kcps | Zeta Count Rate / kcps [1, 5]: 9524 kcps | Tht rel to blank (42.1851851851852) [2, 6]: 2.548 | Tht category (> 1.5 to blank = +) ([2]; category 1/0): 1 (ThT. Cat is 1, if Rel. ThT >2) | Tht rel to blank (42.1851851851852) [2, 8]: 2.548

QCKIKIQINMWQ [EF-C opt]
Log Count Rate ([1]; Fig S8 panels A, C, asymmetric log errors): 3.918 | Log Count Rate ([1]; Fig S8 panels B, D): 3.918 | Count Rate ([1]; Fig S8 panels B, D, turbidity): 8271.27 | Zeta Count Rate Category ([1]; category 1/0, no key printed): 1 | Zeta Count Rate Category [1, 3]: 1 | Zeta Count Rate / kcps [1, 4]: 8271 kcps | Zeta Count Rate / kcps [1, 5]: 8271 kcps | Tht rel to blank (42.1851851851852) [2, 6]: 9.054 | Tht category (> 1.5 to blank = +) ([2]; category 1/0): 1 (ThT. Cat is 1, if Rel. ThT >2) | Tht rel to blank (42.1851851851852) [2, 8]: 9.054

QCKIKQII [CK6]
Zeta Count Rate Category ([1]; category 1 / 0, no key given): 1 | Zeta Count Rate Category [1, 3]: 1 | Zeta Count Rate / kcps [1]: 301 kcps | Zeta Count Rate / kcps [1, 4]: 301 kcps | Zeta Count Rate / kcps [1, 5]: 301 kcps | Tht rel to blank (42.1851851851852) [2, 6]: 2.961 | Tht rel to blank (42.1851851851852) [2, 7]: 2.961 | Tht category (> 1.5 to blank = +) ([2]; category 1/0): 1 (ThT. Cat is 1, if Rel. ThT >2) | Tht rel to blank (42.1851851851852) [2, 8]: 2.961

QCKIKQIINM [CK5]
Zeta Count Rate Category ([1]; category 1 / 0, no key given): 1 | Zeta Count Rate Category [1, 3]: 1 | Zeta Count Rate / kcps [1]: 20551.06667 kcps | Zeta Count Rate / kcps [1, 4]: 20551.06667 kcps | Zeta Count Rate / kcps [1, 5]: 20551.06667 kcps | Tht rel to blank (42.1851851851852) [2, 6]: 23.32 | Tht rel to blank (42.1851851851852) [2, 7]: 23.32 | Tht category (> 1.5 to blank = +) ([2]; category 1/0): 1 (ThT. Cat is 1, if Rel. ThT >2) | Tht rel to blank (42.1851851851852) [2, 8]: 23.32

RGDCKFKFQF [TM64/ CN15]
Zeta Count Rate Category ([1]; category 1 / 0, no key given): 1 | Zeta Count Rate Category [1, 3]: 1 | Zeta Count Rate / kcps [1]: 1338 kcps | Zeta Count Rate / kcps [1, 4]: 1338 kcps | Tht rel to blank (42.1851851851852) [2, 6]: 6.788 | Tht rel to blank (42.1851851851852) [2, 7]: 6.788 | Tht category (> 1.5 to blank = +) ([2]; category 1/0): 1 (ThT. Cat is 1, if Rel. ThT >2)

RGDCKIKIQINM [TM45]
Zeta Count Rate Category [1, 3]: 1 | Zeta Count Rate / kcps [1, 4]: 1623 kcps | Zeta Count Rate / kcps [1, 5]: 1623 kcps | Tht category (> 1.5 to blank = +) ([2]; FigS26): 0 (Tht category (> 1.5 to blank = +)) | Tht rel to blank (42.1851851851852) [2, 6]: 1.835 | Tht category (> 1.5 to blank = +) ([2]; category 1/0): 0 (ThT-inactive (N-Fold <2)) | Tht rel to blank (42.1851851851852) [2, 8]: 1.835

RGDKIKIQI
Log10 Count Rate ([1]; Log10 of derived count rate of scattered light (turbidity)): 2.474 | Count Rate / kcps ([1]; derived count rate of scattered light at 633 nm, 173°, from zeta-potential measurement, 0.1 mg/mL in 1 mM KCl after 1 d at 1 mg/mL in PBS, turbidity / microscopic aggregation, mean of triplicate): 298 kcps | Log10 Count Rate ([1]; log10 of derived count rate of scattered light (turbidity)): 2.474 | Log10 Count Rate ([1]; turbidity, Log10 of derived count rate of scattered light, Figure 3A source data): 2.474 | Tht category (> 2 to blank = +) ([2]; Fig S10 panel D): 1 (ThT. Cat is 1, if Rel. ThT >2) | Tht category (> 2 to blank = +) ([2]; FigS12 panel A): 1 (ThT. Cat is 1, if Rel. ThT >2) | ThT Cat, ([2]; FigS12 panel B): 1 (ThT. Cat is 1, if Rel. ThT >2) | ThT Cat, ([2]; ThT category, 1 if Rel. ThT >2): 1 (ThT. Cat is 1, if Rel. ThT >2) | ThT Cat. ([2]; ThT fluorescence category, 1 if Rel. ThT >2): 1 (ThT. Cat is 1, if Rel. ThT >2) | ThT Cat. / ThT-Fluorescence (categorical) ([2]; ThT-active if fluorescence at least twice the control): 1 (ThT. Cat is 1, if Rel. ThT >2)

RGDKIKIQI [MG14]
Zeta Count Rate Category [1, 3]: 1 | Zeta Count Rate / kcps [1, 4]: 298.1 kcps | Zeta Count Rate / kcps [1, 5]: 298.1 kcps | Tht category (> 1.5 to blank = +) ([2]; FigS26): 1 (Tht category (> 1.5 to blank = +)) | Tht rel to blank (42.1851851851852) [2, 6]: 5.578 | Tht category (> 1.5 to blank = +) ([2]; category 1/0): 1 (ThT. Cat is 1, if Rel. ThT >2) | Tht rel to blank (42.1851851851852) [2, 8]: 5.578

RGDKIKIQIC [MG7/CN1]
Zeta Count Rate Category [1, 3]: 1 | Zeta Count Rate / kcps [1, 4]: 7509 kcps | Zeta Count Rate / kcps [1, 5]: 7509 kcps | Tht category (> 1.5 to blank = +) ([2]; FigS26): 1 (Tht category (> 1.5 to blank = +)) | Tht rel to blank (42.1851851851852) [2, 6]: 19.76 | Tht category (> 1.5 to blank = +) ([2]; category 1/0): 1 (ThT. Cat is 1, if Rel. ThT >2) | Tht rel to blank (42.1851851851852) [2, 8]: 19.76

RGDSKIKIQIC [TM113 / RC11]
Zeta Count Rate Category [1, 3]: 1 | Zeta Count Rate / kcps [1, 4]: 2699 kcps | Tht rel to blank (42.1851851851852) [2, 6]: 13.8
